Laboratory results as given in patent US6610890B1, “Aldose reductase inhibitors and pharmaceutical compositions” (O.N.C.E.-(Organizacion Nacional De Cicgos), priority 1998, dated 2003).
pIC50: −log10 of the molar value. Like-named read-outs stand apart in the source and are kept apart here.

Assays:
[1] = tested on: cells from rabbit cornea (ATCC CCL 60); assay: Inhibition of intracellular accumulation of sorbitol in rabbit cornea cells; assay type: cell-based; conditions: Oryctolagus cuniculus, read-out: INHIBITION, IC50 Sorbitol Accumulation
Experimental: For this assay, cells from rabbit cornea (ATCC CCL 60) were used as previously described^23. In summary, 10×10^6 cells were incubated in 2.5 ml of Minimum Essential Medium (JRH Biosciences), 0.5% foetal calf serum and 50 mM glucose for 16 h at 37° C. in presence of 5% CO2. Compounds under study were added in DMSO whose final concentration was 1%. The sorbitol accumulated in the cells was extracted by lysis with 8% perchloric acid and neutralised with 2N KOH^24. Sorbitol quantitation was carried out using a calorimetric test (D-Sorbitol/Xylitol, Boehringer Mannheim).

[2] = target: T1, Human recombinant aldose reductase (Homo sapiens, UniProt P15121); assay: Inhibition of human recombinant aldose reductase (NADPH disappearance at 340 nm); assay type: biochemical
T1 construct: made in house; host or cells: Sf9 insect cells (Spodoptera frugiperda) infected with recombinant baculovirus AcAR
Experimental: Human recombinant aldose reductase was obtained and purified as previously described^21 with slight modifications. Briefly, Sf9 insect cells (Spodoplera frugiperda, from Pharmingen) were cultured in Grace's medium (Gibco) at 27° C. Then, cultures were infected with the purified recombinant baculovirus AcAR^22 that was kindly provided by Dr. C. Nishimura (National Children's Medical Research Center, Tokyo, Japan). The enzyme released into the culture medium was purified by affinity chromatography (Matrex Gel Orange A, Amicon). This Aldose Reductase was kept at −20° C. in 50 mM sodium phosphate, pH 7.0, 5 mM dithiotreitol and 50% glycerol.
Recombinant Aldose Reductase activity was determined according to the method previously described^21. The assay was carried out in a 96-well microtiter plate, at 37° C. in 100 mM sodium phosphate buffer, pH 6.2, 400 mM (NH4)2SO4, 0.1 mM NADPH and 5 mU/ml recombinant aldose reductase (1 mU of activity was defined as a change in absorbance of 0.012 units per minute). The reaction was initiated by addition of 10 mM glyceraldehyde and the enzymatic activity measured as the NADPH disappearance at 340 nm in a plate reader (MR-5000, Dynatech). Compounds were dissolved in DMSO (1% final concentration).

[3] = recombinant enzyme, 37° C., pH 6.2, 10 mM glyceraldehyde, 0.1 mM NADPH, read-out: INHIBITION, IC50 Aldose Reductase
[4] = rabbit cornea cells, 50 mM glucose, 16 h at 37° C.

Structure (SMILES) | pIC50 ([1]; 16 h) | pIC50 [2, 3] | pIC50 [1, 4] | pIC50 [2] | melting point [°C]
Oc1c(F)c(F)c(-c2c(F)c(F)c(O)c(F)c2F)c(F)c1F [A-VII, 2,2′,3,3′,5,5′,6,6′-Octafluoro-4,4′-biphenol hydrate] | 6.38 | 6.66 |  |  | 
Oc1c(Oc2cc(Cl)c(Cl)c(Cl)c2O)cc(Cl)c(Cl)c1Cl [A-III, 3,3′,4,4′,5,5′-Hexachloro-2,2′-dihydroxy-oxydiphenyl] |  |  | 6.62 | 5.30 | 
Oc1c(Br)cc(Oc2cc(Br)c(Br)c(Br)c2O)c(O)c1Br [A-II, 3,3′,4′,5,5′-pentabromo-2,2′,4-trihydroxy-oxydiphenyl] |  |  | 5.10 | 5.70 | 207 to 209
Oc1c(Cl)c(Cl)c(-c2c(Cl)c(Cl)c(O)c(Cl)c2Cl)c(Cl)c1Cl [A-VI, 2,2′,3,3′,5,5′,6,6′-Octachloro-4,4′-biphenol] |  | 4.96 | 6.66 |  | 94 to 96
O=C(c1cc(Br)cc(Br)c1O)c1cc(Br)cc(Br)c1O [A-IV, 3,3′,5,5′-tetrabromo-2,2′-dihydroxybenzophenone] |  | 5.40 | 5.30 |  | 
Oc1c(Br)c(Br)c(-c2c(Br)c(Br)c(O)c(Br)c2Br)c(Br)c1Br [A-V, 2,2′,3,3′,5,5′,6,6′-Octabromo-4,4′-biphenol] |  | 6.00 | < 4.92 |  | 282
Oc1c(Oc2cc(Br)c(Br)c(Br)c2O)cc(Br)c(Br)c1Br [A-I, 3,3′,4,4′,5,5′-hexabromo-2,2′-dihydroxy-oxydiphenyl] |  | 5.40 | 6.00 |  | 188 to 190
